Reference: patent publication US20250275976A1, “Methods of Treating Neuroinflammatory Conditions” (Athira Pharma, Inc., priority 2022, published 2025)
Square brackets hold non-standard residues; d marks the D form. Peptide text beside a SMILES is read from it. * marks the point of attachment. Hexanoyl = CCCCCC(=O)*; Ahx = NCCCCCC(=O)O

Experiments:
[1] = test system: dopaminergic (DA) neurons; experiment: TH+ neuron number and neurite network after MPP+, rotenone or 6-OHDA injury; assay type: cell-based, rat (Wistar); parameters: key to Neurite Network (significance vs insult) / TH+ neuron number (significance vs insult): “NS” indicates that the comparison was not statistically significant; “+” indicates that p<0.05
Excerpt: A range of neurodegenerative disease states converge on neuroinflammatory dysfunction related to mitochondrial impairment and the generation of reactive oxygen species (ROS). Chemical disruption of mitochondrial function by treatment of neuron cultures with 1-methyl-4-phenylpyridium (MPP+) or the pesticide rotenone can lead to activation of inflammatory signaling pathways and death via apoptotic and necrotic mechanisms. Similarly, intracellular oxidation of 6-hydroxydopamine (6-OHDA), which is readily absorbed by dopaminergic neurons in culture, leads to production of ROS within the cell, activation of inflammatory signaling, and cell death. In vitro exposure to these neurotoxins has been successfully used to model the effects of neurodegenerative inflammation and identify therapeutic agents that can protect neurons from these effects.
Midbrain tissue obtained from 15-day old rat (Wistar) embryos was dissected and the ventral mesencephalic region, an area rich in dopaminergic (DA) neurons was removed and dissociated by trypsinization and mechanical passage. Cells were cultured in Neurobasal medium supplemented with B27 (2%), L-glutamine (2 mM), 2% of Penicillin-Streptomycin (PS) solution, 10 ng/mL of Brain-derived neurotrophic factor (BDNF) and 1 ng/mL of Glial-Derived Neurotrophic Factor (GDNF).
Viable cells were seeded at a density of 40,000 cells/well in 96-well plates and maintained at 37° C. in 5% CO2. […] Subsequently, chemical insults were added to the culture in separate plates as follows: 4 uM of MPP+ for 48 hours, 10 nM of rotenone for 24 hours, and 20 uM of 6-OHDA for 24 hours.
Following incubation, cell culture supernatant was replaced by a fixative solution of 4% paraformaldehyde in PBS for 20 minutes and prepared for immunostaining. Fixed cultures were stained with a monoclonal anti-Tyrosine Hydroxylase (TH) antibody (1:10000 in PBS, 2 hrs, RT) followed by incubation with appropriate fluorescent secondary antibody and Hoechst dye. Automated fluorescent imaging, 20 images per well, was performed at 10× magnification. Computation image analysis was used to quantify the total number of TH+ neurons, and the total length of the neurite network. Statistical analysis using a one-way ANOVA followed by Fishers LSD test compared inflammatory insult cultures with and without test compound treatment.

[2] = test system: primary culture of both cortical neurons and microglia; experiment: Microglial activation (Iba1 area) after Aβ1-42 challenge; assay type: cell-based; parameters: key to Significant decrease in Iba1 area, compared to vehicle treated (Aβ challenge): “NS” indicates a non-significant change in Iba1 area; “+” indicates a p value < 0.05 in Fisher's LSD post-test compared to Aβ challenged
[3] = 6-OHDA injury (20 uM, 24 hrs), dose 0.01 nM
[4] = 6-OHDA injury (20 uM, 24 hrs), dose 0.1 nM
[5] = 6-OHDA injury (20 uM, 24 hrs), dose 1 nM
[6] = 6-OHDA injury (20 uM, 24 hrs), dose 10 nM
[7] = 6-OHDA injury (20 uM, 24 hrs), dose 100 nM
[8] = 6-OHDA injury (20 uM, 24 hrs), dose 1000 nM
[9] = MPP+ injury (4 uM, 48 hrs), dose 0.01 nM
[10] = MPP+ injury (4 uM, 48 hrs), dose 0.1 nM
[11] = MPP+ injury (4 uM, 48 hrs), dose 1 nM
[12] = MPP+ injury (4 uM, 48 hrs), dose 10 nM
[13] = MPP+ injury (4 uM, 48 hrs), dose 100 nM
[14] = MPP+ injury (4 uM, 48 hrs), dose 1000 nM
[15] = Rotenone injury (10 nM, 24 hrs), dose 0.01 nM
[16] = Rotenone injury (10 nM, 24 hrs), dose 0.1 nM
[17] = Rotenone injury (10 nM, 24 hrs), dose 1 nM
[18] = Rotenone injury (10 nM, 24 hrs), dose 10 nM
[19] = Rotenone injury (10 nM, 24 hrs), dose 100 nM
[20] = Rotenone injury (10 nM, 24 hrs), dose 1000 nM

CCCCCC(=O)N[C@@H](Cc1ccc(O)cc1)C(=O)N[C@H](C(=O)NCCCCCC(N)=O)[C@@H](C)CC [Compound A19 active metabolite, dihexa] (Hexanoyl-Tyr-Ile-[Ahx]-NH2)
Neurite Network (significance vs insult) [1, 3]: NS
TH+ neuron number (significance vs insult) [1, 3]: NS
Neurite Network (significance vs insult) [1, 4]: NS
TH+ neuron number (significance vs insult) [1, 4]: NS
Neurite Network (significance vs insult) [1, 5]: NS
TH+ neuron number (significance vs insult) [1, 5]: + (“+” indicates that p<0.05)
Neurite Network (significance vs insult) [1, 6]: + (“+” indicates that p<0.05)
TH+ neuron number (significance vs insult) [1, 6]: + (“+” indicates that p<0.05)
Neurite Network (significance vs insult) [1, 7]: + (“+” indicates that p<0.05)
TH+ neuron number (significance vs insult) [1, 7]: + (“+” indicates that p<0.05)
Neurite Network (significance vs insult) [1, 8]: + (“+” indicates that p<0.05)
TH+ neuron number (significance vs insult) [1, 8]: + (“+” indicates that p<0.05)
Neurite Network (significance vs insult) [1, 9]: NS
TH+ neuron number (significance vs insult) [1, 9]: NS
Neurite Network (significance vs insult) [1, 10]: NS
TH+ neuron number (significance vs insult) [1, 10]: NS
Neurite Network (significance vs insult) [1, 11]: NS
TH+ neuron number (significance vs insult) [1, 11]: + (“+” indicates that p<0.05)
Neurite Network (significance vs insult) [1, 12]: NS
TH+ neuron number (significance vs insult) [1, 12]: + (“+” indicates that p<0.05)
Neurite Network (significance vs insult) [1, 13]: + (“+” indicates that p<0.05)
TH+ neuron number (significance vs insult) [1, 13]: + (“+” indicates that p<0.05)
Neurite Network (significance vs insult) [1, 14]: + (“+” indicates that p<0.05)
TH+ neuron number (significance vs insult) [1, 14]: + (“+” indicates that p<0.05)
Neurotoxic impact of inflammatory-relevant chemical insults (result in words) ([1]; MPP+, rotenone, 6-OHDA): reduces the neurotoxic impact of inflammatory-relevant chemical insults
Neurite Network (significance vs insult) [1, 15]: NS
TH+ neuron number (significance vs insult) [1, 15]: NS
Neurite Network (significance vs insult) [1, 16]: NS
TH+ neuron number (significance vs insult) [1, 16]: NS
Neurite Network (significance vs insult) [1, 17]: NS
TH+ neuron number (significance vs insult) [1, 17]: NS
Neurite Network (significance vs insult) [1, 18]: NS
TH+ neuron number (significance vs insult) [1, 18]: + (“+” indicates that p<0.05)
Neurite Network (significance vs insult) [1, 19]: + (“+” indicates that p<0.05)
TH+ neuron number (significance vs insult) [1, 19]: + (“+” indicates that p<0.05)
Neurite Network (significance vs insult) [1, 20]: + (“+” indicates that p<0.05)
TH+ neuron number (significance vs insult) [1, 20]: + (“+” indicates that p<0.05)
Significant decrease in Iba1 area, compared to vehicle treated (Aβ challenge) ([2]; 100 nM, Pre-(60 min) and Co- Aβ challenge): + (“+” indicates a p value < 0.05 in Fisher's LSD post-test compared to Aβ challenged)
Significant decrease in Iba1 area, compared to vehicle treated (Aβ challenge) ([2]; 100 nM, Pre-(60 min) and post-(24 h) Aβ challenge): NS
Significant decrease in Iba1 area, compared to vehicle treated (Aβ challenge) ([2]; 100 nM, Pre-(60 min), Co-, and post-(24 h) Aβ challenge): + (“+” indicates a p value < 0.05 in Fisher's LSD post-test compared to Aβ challenged)
Significant decrease in Iba1 area, compared to vehicle treated (Aβ challenge) ([2]; 1 μM, Pre-(60 min) and Co- Aβ challenge): + (“+” indicates a p value < 0.05 in Fisher's LSD post-test compared to Aβ challenged)
Significant decrease in Iba1 area, compared to vehicle treated (Aβ challenge) ([2]; 1 μM, Pre-(60 min) and post-(24 h) Aβ challenge): NS
Significant decrease in Iba1 area, compared to vehicle treated (Aβ challenge) ([2]; 1 μM, Pre-(60 min), Co-, and post-(24 h) Aβ challenge): + (“+” indicates a p value < 0.05 in Fisher's LSD post-test compared to Aβ challenged)
Significant decrease in Iba1 area, compared to vehicle treated (Aβ challenge) ([2]; 60 min pre-Aβ challenge, concentration not given): + (“+” indicates a p value < 0.05 in Fisher's LSD post-test compared to Aβ challenged)
Microglial activation, as measured by Iba1 area (result in words) ([2]; Aβ1-42 challenge 72 hours): significantly reduced microglial activation
